Reference: patent US9572807B2, “Protocols for treatment of major depressive disorder (MDD)” (NEURALSTEM, INC., priority 2014, dated 2017)

What was measured:
Format in all cases: in vivo, human
[1] = tested on: patients with symptomatic MDD; experiment: Cognitive and Physical Functioning Questionnaire (CPFQ), Phase 1B study; conditions: for Cohen's d value, CPFQ (ANCOVA): all test groups (n=18) vs placebo (n=6)
Method: (§1) A double-blind, placebo-controlled, multiple-ascending-dose study employing the compound of formula (1) was performed in patients with symptomatic MDD. Twenty-four subjects were recruited, with their diagnosis and illness severity confirmed through an independent, remote SAFER interview (Targum, S. D., et al., CNS Neurosci. Ther. (2008) 14:2-9) from the Massachusetts General Hospital (MGH) Clinical Trials Network and Institute (CTNI) raters. Each patient underwent a screening for eligibility (Day −37 to Day −6 or −3) and eligible patients were admitted into the unit on Day −5 to complete their wash-out and be reconfirmed for eligibility and for baseline assessments. The patients received daily dosing of formula (1) or placebo for 28 days starting on Day 1 and were followed for safety, pharmacokinetics (PK) and pharmacodynamics (PD) until discharge. At the conclusion of in-house dosing (Day 28), patients remained in the unit for up to 3 additional days, at the psychiatrist's discretion. On Day 35 (±3), Day 42 (±3), Day 49 (±3) and Day 70 (±3) outpatient follow-up visits took place. Patients returned to the unit for extensive follow-up on Day 56 (±3) and Day 84 (±3) (End-of-study).
(§2) The subjects were randomized into four groups of 6 patients each to receive 40 mg of formula (1) per dose administered orally in gelatin capsules once daily, twice daily or three times daily to provide 40 or 80 or 120 mg daily of formula (1) or placebo for 28 days. Each cohort included at least 3 female subjects. In this example, qEEG was used to characterize pharmacodynamic effects.
(§3) In this example, the results of the study of Example 1 were evaluated by the efficacy assessments that included the Montgomery-Asberg Depression Rating Scale (MADRS), the Clinician Global Impression-Improvement (CGI-I), the Symptoms of Depression Questionnaire (SDQ) and the Cognitive and Physical Functioning Questionnaire (CPFQ). […] These improvements persisted over time during the follow-up for MADRS, SDQ and CPFQ.
(§4) Baseline values were adjusted for initial differences and the results for the placebo group (n=6) and the tested groups (n=18) were collapsed. The sizes of the effects were estimated as Cohen's d group mean differences where d=0.20 indicates only a small difference, d=0.50 indicates a medium difference and d=0.80 indicates a large difference. Cohen's d values are described in Cohen, J. (1988) Statistical Power Analysis for the Behavioral Sciences (2nd ed.), Lawrence Erlbaum Associates. D values are used when the scale of a dependent variable is not inherently meaningful, the difference between means are considered in standardized units. That is, effect size is measured in terms of the number of standard deviations by which the means differ. Two commonly used measures are Hedges' g and Cohen's d. Both of these measures consist of the difference between means divided by the standard deviation. They differ only in that Hedges' g uses the version of the standard deviation formula in which division is by N−1, whereas Cohen's d uses the version in which division is by N.
(§5) Covariance is a measure of how much two variables change together and how strong the relationship is between them (Lenth, R. V., The American Statistician (2001) 55:187-193). Analysis of covariance (ANCOVA) is a general linear model which blends analysis of variance (ANOVA) and regression. ANCOVA evaluates whether population means of a dependent variable (DV) are equal across levels of a categorical independent variable (IV), while statistically controlling for the effects of other continuous variables that are not of primary interest, known as covariates (CV). Therefore, when performing ANCOVA, the DV means are adjusted to what they would be if all groups were equal on the CV. In the CGI-I assay, Day 7 was used as the baseline value; in the remaining assays, Day 0 was used as baseline.

[2] = tested on: patients with symptomatic MDD; experiment: Overall efficacy assessment in Phase 1B study
Method: as §1, with “On Day 35 (±3), Day 42 (±3), Day 49 (±3) and Day 70 (±3) outpatient follow-up visits took place. Patients returned to the unit for extensive follow-up on Day 56 (±3) and Day 84 (±3) (End-of-study).” left out
In this example, the results of the study of Example 1 were evaluated by the efficacy assessments that included the Montgomery-Asberg Depression Rating Scale (MADRS), the Clinician Global Impression-Improvement (CGI-I), the Symptoms of Depression Questionnaire (SDQ) and the Cognitive and Physical Functioning Questionnaire (CPFQ). […]

[3] = tested on: patients with symptomatic MDD; experiment: Cognitive and Physical Functioning Questionnaire (CPFQ), Phase 1B study; conditions: FIG. 4
[4] = tested on: patients with symptomatic MDD; experiment: Safety and tolerability in Phase 1B study
Method: as §1, §2
(§6) In addition to safety, pharmacokinetic and the behavioral ratings scales described in Example 2, qEEG measurements were obtained 6 hours post-dose on Days 14 and 28 for 20 minutes at rest. EEGs were recorded using 19-standard International 10/20 System scalp locations plus electromyography (EMG) and eye movement monitoring. Digital EEGs recorded using Cadwell Laboratories instrumentation, were reviewed to identify the presence of physiological and instrumentation prior to analyses. […]

[5] = tested on: patients with symptomatic MDD; experiment: qEEG pharmacodynamic measurement; conditions: pre vs 6 hours post-dose on Day 14 and Day 28; prominent in left posterior temporal and parietal regions; lower HFα with placebo
Method: as §1, with “At the conclusion of in-house dosing (Day 28), patients remained in the unit for up to 3 additional days, at the psychiatrist's discretion. On Day 35 (±3), Day 42 (±3), Day 49 (±3) and Day 70 (±3) outpatient follow-up visits took place. Patients returned to the unit for extensive follow-up on Day 56 (±3) and Day 84 (±3) (End-of-study).” left out
as §6

[6] = tested on: patients with symptomatic MDD; experiment: Montgomery-Asberg Depression Rating Scale (MADRS), Phase 1B study; conditions: for MADRS value: FIG. 2; for Cohen's d value, MADRS (ANCOVA): all test groups (n=18) vs placebo (n=6)
Method: as §1, §2, §3, §4, §5

[7] = Day 14, 1x = 40 mg/day oral (n=6)
[8] = Day 14, 2x = 80 mg/day oral (n=6)
[9] = Day 14, 3x = 120 mg/day oral (n=6)
[10] = Day 14, all three dose groups pooled (n=18)
[11] = Day 28, 1x = 40 mg/day oral (n=6)
[12] = Day 28, 2x = 80 mg/day oral (n=6)
[13] = Day 28, 3x = 120 mg/day oral (n=6)
[14] = Day 28, all three dose groups pooled (n=18)
[15] = Day 56 (follow-up after 28 days dosing), 1x = 40 mg/day oral
[16] = Day 56 (follow-up after 28 days dosing), 2x = 80 mg/day oral
[17] = Day 56 (follow-up after 28 days dosing), 3x = 120 mg/day oral
[18] = Day 56 (follow-up after 28 days dosing), all three dose groups pooled (n=18)
[19] = Day 84 (follow-up after 28 days dosing), 1x = 40 mg/day oral
[20] = Day 84 (follow-up after 28 days dosing), 2x = 80 mg/day oral
[21] = Day 84 (follow-up after 28 days dosing), 3x = 120 mg/day oral
[22] = Day 84 (follow-up after 28 days dosing), all three dose groups pooled
[23] = Day −5 (baseline before dosing), 1x = 40 mg/day group
[24] = Day −5 (baseline before dosing), 2x = 80 mg/day group
[25] = Day −5 (baseline before dosing), 3x = 120 mg/day group
[26] = Day −5 (baseline before dosing), all three dose groups pooled (n=18)

Compound: CC(C)CCNc1ncccc1C(=O)N1CCN(Cc2ccccc2)CC1 [formula (1)]
- CPFQ value ([1]; 80 mg/day, FIG. 4, controls (n=2) 4.6): 2.6
- Cohen's d value, CPFQ (ANCOVA) ([1]; 30 days): 0.94
- CPFQ Means [1, 7]: 3.3095
- CPFQ Means [1, 8]: 3.2143
- CPFQ Means [1, 9]: 3
- CPFQ Means [1, 10]: 3.1746
- CPFQ Means [1, 11]: 2.7857
- CPFQ Means [1, 12]: 2.6905
- CPFQ Means [1, 13]: 2.6667
- CPFQ Means [1, 14]: 2.7143
- CPFQ Means [1, 15]: 2.9048
- CPFQ Means [1, 16]: 2.3571
- CPFQ Means [1, 17]: 2.5714
- CPFQ Means [1, 18]: 2.6111
- CPFQ Means [1, 19]: 2.8571
- CPFQ Means [1, 20]: 2.4286
- CPFQ Means [1, 21]: 2.3714
- CPFQ Means [1, 22]: 2.563
- Cohen's d value, CPFQ (ANCOVA) ([1]; Day 85): 1.20
- CPFQ Means [1, 23]: 4.0238
- CPFQ Means [1, 24]: 3.4762
- CPFQ Means [1, 25]: 3.7143
- CPFQ Means [1, 26]: 3.7381
- Depressive and cognitive symptoms across all measures ([2]; Day 28, two lower doses (40 mg/day and 80 mg/day)): clinically meaningful reduction in depressive and cognitive symptoms across all measures
- Effect on condition of patients, further analysis ([2]; highest dose (120 mg/day)): effective in improving the condition of these patients
- CPFQ value ([3]; 40 mg/day, control group (n=2) 3.75): 2.8
- CPFQ value ([3]; 120 mg/day, controls (n=2) 3.3): 2.6
- Serious adverse events ([4]; 40-120 mg/day oral for 28 days): No serious adverse events occurred
- Tolerability ([4]; 40-120 mg/day oral for 28 days): well tolerated
- Safety EEG recordings by visual inspection ([4]; pre vs post dose): no new findings
- qEEG high frequency α (HFα), amplitude and coherence measures [5]: increased HFα
- MADRS value ([6]; 40 mg/day, controls (n=2) 23.5): 12.5
- MADRS value ([6]; 80 mg/day, controls (n=2) 18): 15
- MADRS value ([6]; 120 mg/day, controls (n=2) 18): 16
- MADRS Means [6, 7]: 20.1667
- MADRS Means [6, 8]: 18.8333
- MADRS Means [6, 9]: 15.8333
- MADRS Means [6, 10]: 18.2778
- MADRS Means [6, 11]: 12.6667
- MADRS Means [6, 12]: 15
- MADRS Means [6, 13]: 16.5
- MADRS Means [6, 14]: 14.7222
- Cohen's d value, MADRS (ANCOVA) ([6]; Day 30): 0.95
- MADRS Means [6, 15]: 14.3333
- MADRS Means [6, 16]: 12
- MADRS Means [6, 17]: 11.3333
- MADRS Means [6, 18]: 12.5556
- MADRS Means [6, 19]: 15
- MADRS Means [6, 20]: 12
- MADRS Means [6, 21]: 10.8
- MADRS Means [6, 22]: 12.7059
- Cohen's d value, MADRS (ANCOVA) ([6]; Day 85): 0.84
- MADRS Means [6, 23]: 24.8333
- MADRS Means [6, 24]: 24.6667
- MADRS Means [6, 25]: 24.3333
- MADRS Means [6, 26]: 24.6111
